Source: patent US20230158033A1, “Method of Treating Pemphigus by Administering (R)-2-[3-[4-Amino-3-(2-Fluoro-4-Phenoxy-Phenyl)Pyrazolo[3,4-D]Pyrimidin-1-YL]Piperidine-1-Carbonyl]-4-Methyl-4-[4-(Oxetan-3-YL)Piperazin-1-YL]Pent-2-Enenitrile” (Principia Biopharma Inc., priority 2019, published 2023)
Where “and” joins values, the source holds several entries; their conditions need not be identical. Equal entries are not always repeated.

Experiments:
[1] = system: rats with collagen-induced arthritis; settings: rats with collagen-induced arthritis (Hill R et al., 2015); cited from earlier work
[2] = Plasma concentration of PRN1008, Part A; assay type: in vivo; settings: human, oral, read-out: plasma levels at 12 hours post-dose (trough point)
[3] = system: patients with pemphigus; test: Safety (adverse events), Part B
Method: (§1) Specific assessments to evaluate treatment safety included the following: (1) the frequency and type of AEs; (2) clinical laboratory testing; (3) SNAQ appetite questionnaire; and (4) vital signs. Typically, patients remained under observation in the clinic for 2 hours after administration of the first PRN1008 dose and until the PK sample was drawn.
(§2) The primary safety outcome measures were incidence of treatment-emergent AEs (TEAEs), including clinically significant changes in physical examination, laboratory tests, and vital signs.
(§3) Investigators were instructed to report in detail all AEs encountered during the clinical study in the source documents, from the date of participant consent throughout the follow-up visit. Investigators were also instructed to report pre-existing conditions that worsen during a study were instructed as AEs, with the exception of the disease under study as it was expected that there may be variation in pemphigus disease activity intended to be captured in other measurements.
(§4) Investigators were instructed to grade AEs based on the NCI CTCAE, Version 4.0 or higher.
(§5) Investigators were instructed to use their knowledge of the study participant, the circumstances surrounding the event, and an evaluation of any potential alternative causes to determine whether or not an AE is considered to be related to the study drug, indicating “yes” or “no” accordingly.

[4] = system: patients with pemphigus (PV and PF); test: Interim data as of Jan. 18, 2018 in patients with pemphigus (PV and PF); assay type: in vivo, human
Method: As of Jan. 18, 2018, PRN1008 had been administered to 21 patients with pemphigus (pemphigus vulgaris (PV) and pemphigus foliaceus (PF)), 18 of whom had 4 or more weeks of treatment with […]1008 was well-tolerated in this study. […] Three patients achieved CDA on no CS. Two patients required high-dose CS temporarily during PRN1008 treatment due to worsening of disease activity. Four patients achieved complete remission (CR) on 1 to 20 mg/day of CS, three achieved CR at Week 13 (25%), and one achieved CR at Week 21.

[5] = system: canines with naturally occurring PF; settings: canines with naturally occurring PF (Murrell DF, 2019); cited from earlier work
[6] = system: healthy volunteers; settings: Phase 1, healthy volunteers (Smith PF 2017); cited from earlier work
[7] = system: patients with pemphigus (Safety Population); test: Safety (treatment-emergent adverse events), Part A
Method: as §1, §2, §3, §4, §5

[8] = system: anti-dsg 1 and anti-dsg 3 autoantibody levels; test: Anti-dsg autoantibody levels by ELISA, Part A; settings: including patients with high autoantibody levels at baseline
Source text: PK outcome measures investigated included plasma concentrations of PRN1008 at approximately the time of maximum concentration on Day 1 and at various subsequent times during outpatient dosing.

[9] = Relative bioavailability study, tablet vs liquid formulation
[10] = system: fetal development, male fertility; test: Preclinical reproductive toxicity studies; assay type: in vivo
[11] = system: patients with newly diagnosed or relapsing pemphigus; test: Phase 2 study Part B (400 mg QD up to 600 mg BID, 24-week treatment): clinical activity; settings: for Median PDAI: 12 at day 1
Method: Generally, clinical response is shown by some improvement seen in first 2 weeks with CDA achieved by the Week 5 visit. […] Typically, clinical response and tolerability were assessed at each visit.
PDAI and ABSIS assessments were employed to monitor pemphigus disease activity. […] Photography was used to document skin disease changes where appropriate.
Part B was a multicenter, open-label, single-arm Phase 2 study (NCT02704429) designed to further evaluate the efficacy and safety of PRN1008 in pemphigus patients. Patients received an initial dose of 400 mg PRN1008 once a day (QD) with possible dose adjustment up to 600 mg BID at investigator discretion. Treatment duration was 24 weeks with an additional 4 weeks of follow-up off treatment.

[12] = system: patients with newly diagnosed or relapsing pemphigus; test: Phase 2 study Part A (400 mg BID up to 600 mg BID, 12-week treatment): clinical activity; assay type: in vivo, human; settings: for patients who achieved complete remission (CR): n = 24
[13] = healthy volunteer population (Evans 2013); cited from earlier work

## CC(C)(C=C(C#N)C(=O)N1CCC[C@@H](n2nc(-c3ccc(Oc4ccccc4)cc3F)c3c(N)ncnc32)C1)N1CCN(C2COC2)CC1 [PRN1008, (R)-2-[3-[4-amino-3-(2-fluoro-4-phenoxy-phenyl)pyrazolo[3,4-d]pyrimidin-1-yl]piperidine-1-carbonyl]-4-methyl-4-[4-(oxetan-3-yl)piperazin-1-yl]pent-2-enenitrile]
[1]
  disease symptoms and outcomes: improved disease symptoms and outcomes
[2]
  concentration at 12 h: 9.5 ng/mL
[3]
  tolerability: well tolerated
[3]; all treatment-related AEs
  severity of treatment-related AEs: mild-moderate and transient
[3]; mild to moderate (grade 1 and 2)
  Treatment-related AEs with an incidence greater than 10%: nausea, abdominal distension, infection, and oropharyngeal pain
[3]; of 15, grade 1 nasopharyngitis, grade 1 tracheitis
  patients who reported a mild related infection: 2 patients
[4]
  patients who achieved CDA on no CS: Three
  patients who achieved CR at Week 21: one
  patients who achieved complete remission (CR) on 1 to 20 mg/day of CS: Four
[4]; 11 of 18 patients with efficacy data
  patients who met the primary endpoint CDA on CS <= 0.5 mg/kg/day by the Week 5 visit: 61%
[4]; 21 patients with pemphigus
  tolerability: well-tolerated
[4]; during PRN1008 treatment
  patients who required high-dose CS temporarily due to worsening of disease activity: Two
[4]; three patients
  patients who achieved CR at Week 13: 25%
[5]
  disease symptoms and outcomes: improved disease symptoms and outcomes
[6]
  discontinuation due to an adverse event: no participants discontinued treatment due to an adverse event
  most commonly reported adverse events: gastrointestinal adverse events, including nausea/vomiting and diarrhea
  serious adverse events or deaths: No serious adverse events or deaths were reported
[7]; Part A
  AEs commonly associated with marketed BTKi (major hemorrhage, atrial fibrillation, thrombocytopenia/neutropenia): no cases
  AEs related to the study drug: headache: 11%
  AEs related to the study drug: nausea: 15%
  AEs related to the study drug: upper abdominal pain: 11%
  patients who experienced Serious AEs (SAE): Three
[7]; Part A Safety Population, 20 of 27
  patients who experienced a TEAE: 74%
[7]; Part A, Day 26, patient with type II diabetes
  only treatment related SAE: cellulitis (Grade 3)
[7]; Part A, number of AEs out of all AEs
  AEs that were Grade 1 or 2: 94/97
[8]
  median reduction of autoantibody levels: up to 65%
[9]
  exposure of the tablet relative to the equal dose of the liquid formulation: ~ 70%
[10]
  reproductive toxicity: not expected to harm fetal development or male fertility
[11]; 400 mg QD only, 2 weeks, n = 14 (FIG. 6)
  patients who achieved CDA: 29%
[11]; 400 mg QD only, 4 weeks, n = 14 (FIG. 6)
  patients who achieved CDA: 43%
[11]; 400 mg QD only, 4 weeks, n = 14 (FIG. 8B, 80% CI)
  patients who achieved CDA: 50%
[11]; 400 mg QD only, 12 weeks, n = 14 (FIG. 6)
  patients who achieved CDA: 50%
[11]; 400 mg QD only, 12 weeks, n = 14 (FIG. 8B, 80% CI)
  patients who achieved CDA: 50%
[11]; 400 mg QD only, 12 weeks, n = 14 (FIG. 9B)
  patients who achieved complete remission (CR): 7%
[11]; 400 mg QD only, 24 weeks, n = 14 (FIG. 9B)
  patients who achieved complete remission (CR): 7%
[11]; 400 mg QD only, 28 weeks (24 on, 4 off treatment), n = 14 (FIG. 9B)
  patients who achieved complete remission (CR): 7%
[11]; 400 mg QD with dose adjustment up to 600 mg BID, 2 weeks, n = 15 (FIG. 7)
  patients who achieved CDA: 27%
[11]; 400 mg QD with dose adjustment up to 600 mg BID, 4 weeks, n = 15 (FIG. 7)
  patients who achieved CDA: 53%
[11]; 400 mg QD with dose adjustment up to 600 mg BID, 12 weeks, n = 15 (FIG. 7)
  patients who achieved CDA: 80%
[11]; 24 weeks of PRN1008 treatment
  daily corticosteroid usage: decreased
[11]; at 12 weeks
  Median PDAI: 4
[11]; at 24 weeks, 10 out of 15
  patients having reached a PDAI of 1 or 0: 67%
[11]; at 24 weeks
  Median PDAI: 1
[11]; by 24 weeks
  reduction in mean PDAI activity score: 79%
  reduction in median PDAI activity score: 94%
[11]; dose adjustment up to 600 mg BID, 4 weeks, n = 15 (FIG. 8A, 80% CI)
  patients who achieved CDA: 60%
[11]; dose adjustment up to 600 mg BID, 12 weeks (FIG. 9A)
  patients who achieved complete remission (CR): 13%
[11]; dose adjustment up to 600 mg BID, 12 weeks, n = 15 (FIG. 8A, 80% CI)
  patients who achieved CDA: 87%
[11]; dose adjustment up to 600 mg BID, 24 weeks (FIG. 9A)
  patients who achieved complete remission (CR): 33%
[11]; dose adjustment up to 600 mg BID, 28 weeks (24 on, 4 off treatment) (FIG. 9A)
  patients who achieved complete remission (CR): 40%
[12]
  Efficacy across subgroups: 43-64%
  additional patients who achieved CR at Week 13 without CS use: four
  patients who achieved CDA at or prior to the Week 5 visit without the use of CS: Three
  patients who did not require dose escalation to achieve response: 90%
  patients who needed dose escalation beyond the standard 400 mg bid: three
[12]; 400 mg BID (up to 600 mg BID), 2 weeks / study day 15, n = 26
  patients who achieved control of disease activity (CDA): 27%
[12]; 400 mg BID subgroup, 12 of 23
  CDA with low dose CS by Day 29, dosing subgroup: 52%
[12]; 500 mg BID subgroup, 1 of 1
  CDA with low dose CS by Day 29, dosing subgroup: 100%
[12]; 600 mg BID subgroup, 1 of 2
  CDA with low dose CS by Day 29, dosing subgroup: 50%
[12]; 4 weeks / Day 29, CS <= 0.5 mg/kg/day, n = 26 (primary endpoint), 0.5 mg/kg/day
  patients who achieved control of disease activity (CDA) with low dose CS: 54% and > 50%
[12]; 6 of 8
  CDA rate in newly diagnosed patients: 75%
[12]; 6 of 26
  patients who achieved CR during the study period: 23%
[12]; 12 weeks (treatment period), patients that completed the study
  patients who achieved complete remission (CR): 16.7% and 17%
[12]; 12 weeks / Day 85
  patients who achieved control of disease activity (CDA) with low dose CS: 73%
[12]; 13 of 18
  CDA rate in relapsing patients: 72%
[12]; 24 weeks (12 weeks on, 12 weeks off treatment; follow-up by Day 141)
  patients who achieved complete remission (CR): 25%
[12]; all of 11 patients with milder disease
  PDAI scores on the Day 85 visit: ≤ 5
[12]; all patients, SD = 10, baseline 14 mg/day (SD = 11)
  Mean CS dose after 12 weeks of treatment: 12 mg/day
[12]; dropped from 14 mg/day at baseline
  mean CS dose at CR: 8 mg/day
[12]; follow-up period
  additional patients who achieved CR on CS <= 0.5 mg/kg/day by Day 141: two
[12]; four patients of 26
  patients who achieved CR on CS doses <= 0.5 mg/kg/day by Day 85: 15%
[12]; in the 12 weeks off PRN1008
  patients who needed CS rescue > 0.5 mg/kg: 4 patients
[12]; over 12 weeks of treatment
  median reduction in PDAI scores: 70%
[12]; patients who achieved CR, range 1-20 mg
  mean CS dose at the time CR was achieved: 8 mg
[12]; post-treatment
  median CR duration: 96 days
[12]; post-treatment, range 0.7-20 mg/day
  mean CS dose during CR duration: 8 mg/day
[12]; slightly higher than overall mITT population
  CDA rate in patients with a positive anti-dsg 3 antibody: 64%

## C=CC(=O)Nc1cccc(Nc2nc(Nc3ccc(OCCOC)cc3)ncc2F)c1 [CC-292]
[13]
  tolerability: well tolerated
